Reference: patent US9468624B2, “Small molecule antagonists of bacterial quorum-sensing receptors” (priority 2008, dated 2016)
Like-named read-outs stand apart in the source and are kept apart here.

Assays:
[1] = molecular target: T1, CviR (Chromobacterium violaceum, UniProt D3W065); assay: cell-based; assay type: cell-based; design: made in house; host or cells: E. coli BL21(DE3) pLysS, plasmid pET23b
Description: The vioA-gfp promoter fusion was constructed by amplifying the vioA promoter and cloning this region upstream of gfp in pEVS141 at the SphI and SalI sites. Cells containing the vioA-gfp construct were electroporated with the pET23 carrying cviR and selected on LB medium supplemented with 75 μg/mL ampicillin and 50 μg/mL kanamycin. The E. coli strain containing cviR and the vio:gfp reporter is named ELS1257.
E. coli strains were grown overnight in LB medium with antibiotics at 37° C. and sub-cultured into fresh medium at a 1:100 dilution. Various AHL and antagonists were added at constant concentrations or titrated as stated. The gfp was measured on an Envision plate reader after 5 hours of growth at 37° C. C. violaceum strains were grown aerobically in 1 mL Nutrient Broth plus 1 mM tryptophan at 30° C. […] Cells were collected via centrifugation at 13000 rpm for 15 minutes. Pellets were resuspended in 1 mL of methanol and incubated at 42° C. for 1 hour. Samples were again collected via centrifugation at 13000 rpm for 5 minutes and analyzed for violacein by measuring optical density at 568 nm on a Beckman Coulter DU-800 spectrophotometer. For the dose-response analyses, all assays were performed in triplicate.
However, binding of the longer acyl-tail length AHL molecules disrupts the transcriptional activation ability of CviR.
To determine if 4606-4237 inhibits violacein production specifically by interfering with CviR, 4606-4237 was tested for antagonism of CviR in the recombinant E. coli vioA-gfp assay. For these experiments, C6-HSL was held constant at 500 nM, while 4606-4237 was titrated from 1.3 nM to 100 μM (FIG. 3D). […] Importantly, no C. violaceum components other than CviR are present in the recombinant E. coli assay strain. Thus, any inhibition occurring would be due to a specific interaction between the antagonist molecule 4606-4237 and CviR rather than an interaction of 4606-4237 with some unknown component required for violacein production in C. violaceum.

[2] = molecular target: T1, CviR; assay type: binding; design: made in house; host or cells: E. coli BL21(DE3) pLysS, plasmid pET23b; conditions: for DNA binding of ligand-loaded CviR to vioA promoter: CviR 100-500 nM
Description: CviR Overexpression and Purification. CviR was overexpressed in BL21(DE3) pLysS by growing an overnight culture in LB supplemented with 100 μg/mL ampicillin and 10 μg/mL chloramphenicol. The culture was diluted 1:50 into fresh LB supplemented with 100 μg/mL ampicillin and 10 μg/mL chloramphenicol and grown shaking at 37° C. to an OD600 of 0.4. Various AHL or antagonist molecules were added to at 50 μM and incubated an additional 30 minutes at 30° C., after which expression was induced by the addition of 100 μM IPTG (isopropyl-β-D-thiogalactopyranoside) for 4 hours at 30° C. Cells were harvested by centrifugation and lysed in 20 mM imidazole pH 8.0, 100 mM NaCl, 0.5 mM EDTA and 5% glycerol via a Micro-fluidizer processor (MicroFluidics). Protein was purified via ion-exchange using a Hitrap Heparin HP column (GE Healthcare). Protein was eluted with a 100 mM to 1 M NaCl gradient. Fractions containing CviR were pooled and diluted in lysis buffer devoid of NaCl, and then further purified by cation exchange chromatography using a Hitrap SP HP column (GE Healthcare). CviR was eluted with a 100 mM to 1 M NaCl gradient.
DNA probes for gel mobility shift analyses were generated by standard polymerase chain reaction using primers with a 5′ 6-FAM (fluorescein) tag (Integrated DNA Technologies). The target probe contained about 100 nucleotides of the vioA promoter. The control probe contained 300 bases of vioB intergenic DNA. 37 ng of each probe was incubated for 20 minutes at room temperature with the indicated amounts of CviR (0, 0.1, 0.2, 0.3, 0.4 and 0.5 μM) and 1 μg/μL poly-dIdC in 1× Gel shift buffer (40 mM Tris HCl pH 8.0, 100 mM KCL, 2 mM EDTA, 2 mM DTT, 10% glycerol, 200 μg/mL BSA). Gel mobility shifts were performed on 6% TGE-polyacrylamide gels and visualized using a Storm 860 Imaging System (Molecular Dynamics).
To further investigate the mechanism underlying antagonism of the CviR receptor, an examination was undertaken of whether the soluble CviR antagonist complexes were incapable of binding DNA, and thus unable to activate transcription. […] The CviR protein was also purified in complex with each of the synthetic antagonist molecules, 4606-4237, CTL, and CL. Performance of DNA gel mobility shift analyses enabled assessment of the binding of each of these purified, loaded protein complexes to the vioA promoter.
The reciprocal experiment tested whether C6-HSL could replace CL bound to CviR.

[3] = tested on: C. violaceum killing of C. elegans; assay: C. elegans life span assay following C. violaceum infection; assay type: in vivo, Caenorhabditis elegans; conditions: wild type C. violaceum, CL 20 μM; untreated two days
Description: Life Span Assays. C. elegans lifespan assays were completed with at least 100 wild type N2 worms for each condition. C. elegans eggs were harvested from a large population of gravid adults using a standard bleaching protocol (30 mL 5% bleach, 15 mL N KOH, 55 mL DH2O). Harvested eggs were placed on lawns of fresh E. coli OP50 and allowed to hatch and grow to the young adult (L4) stage before being moved onto lawns of C. violaceum. Worms were scored for survival each day and transferred to new C. violaceum lawns every two days until all worms had expired.
In the presence of the mutant strain, the median C. elegans lifespan is twelve days (FIG. 7A; DMSO control). Exogenous addition of the native autoinducer molecule, C6-HSL restored quorum sensing and complemented the cviI mutant's ability to kill C. elegans (median lifespan=4 days, FIG. 7A).

T1 sequence (D3W065 1-265): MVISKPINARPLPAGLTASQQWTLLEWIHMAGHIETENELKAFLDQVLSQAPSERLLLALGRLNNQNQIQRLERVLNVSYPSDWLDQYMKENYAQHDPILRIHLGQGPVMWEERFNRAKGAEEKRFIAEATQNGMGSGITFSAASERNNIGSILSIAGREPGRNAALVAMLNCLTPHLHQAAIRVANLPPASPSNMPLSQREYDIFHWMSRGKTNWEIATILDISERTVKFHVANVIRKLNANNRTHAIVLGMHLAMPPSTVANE

Row | SMILES | IC50 [1] [nM] | DNA binding of ligand-loaded CviR to vioA promoter [2] | IC50 ([1]; constant 500 nM C6-HSL, read-out: IC50 for inhibition of vioA-gfp expression) [nM] | ligand exchange on loaded CviR, effect on DNA binding ([2]; 500 nM loaded CviR, competing ligand 0-10 μM) | C. elegans lifespan [3]
1 | O=C(CCCOc1ccc(Cl)cc1)NC1CCSC1=O (stereo not drawn) [CTL, Chloro-thiolactone] | 1100 | no ability to bind DNA | – | – | –
2 | O=C(CCCOc1ccc(Cl)cc1)NC1CCOC1=O (stereo not drawn) [CL, chlorolactone] | – | no ability to bind DNA | 377 | DNA binding decreased in a dose dependent manner | seven
